Patent US20210100897A1, “METHODS FOR THE STIMULATION OF DENDRITIC CELL (DC) PRECURSOR POPULATION "PRE-DC" AND THEIR USES THEREOF” (AGENCY FOR SCIENCE, TECHNOLOGY AND RESEARCH, priority 2017, published 2021)

Experiments:
Assay type in all cases: cell-based, human
[1] = tested on: pDC; assay: Luminex Drop Array assay on sorted and stimulated pDC, culture supernatants; settings: TLR7/8 or TLR9 stimulation; FIG. 2G and FIG. 13
Procedure: (§1) A total of 2,000 cells/well of sorted pre-DC and DC subsets were seeded in V-bottom 96 well plates and then incubated for 18 h in 50 μL complete RPMI-1640 Glutmax media (Life Technologies) supplemented with 10% FBS and 1% penicillin/streptomycin, and stimulated with either LPS, LPS+IFNγ, Flagellin, polyI:C, Imidazoquinoline or CpG oligodeoxynucleotides (ODN) 2216. Cells were then pelleted and 30 μL supernatant was collected. A Luminex® Drop Array™ was performed using 5 μL of the supernatant. Human G-CSF, GM-CSF, IFN-α2, IL-10, IL-12p40, IL-12p70, IL-15, IL-1RA, IL-1a, IL-1b, IL-6, IL-7, IL-8, MIP-1b, TNF-α, TNF-β were tested by multiplexing (EMD Millipore) with DropArray-bead plates (Curiox) according to the manufacturer's instructions. Acquisition was performed using xPONENT 4.0 (Luminex) acquisition software, and data analysis was performed using Bio-Plex Manager 6.1.1 (Bio-Rad).

[2] = tested on: pre-DC; assay: Luminex Drop Array assay on sorted and stimulated pre-DC, culture supernatants; settings: TLR7/8 or TLR9 stimulation; FIG. 2G and FIG. 13
Procedure: as §1

[3] = tested on: pDC; assay: Intracellular cytokine detection following stimulation with TLR ligands (PBMC, flow cytometry), pDC; settings: PBMC stimulated 6 h with TLR agonist
Procedure: All antibodies used for fluorescence-activated cell sorting (FACS) and flow cytometry were mouse anti-human monoclonal antibodies (mAbs), except for chicken anti-human CADM1 IgY primary mAb. Briefly, 5×10^6 cells/tube were washed and incubated with Live/Dead blue dye (Invitrogen) for 30 min at 4° C. in phosphate buffered saline (PBS) and then incubated in 5% heat-inactivated fetal calf serum (FCS) for 15 min at 4° C. (Sigma Aldrich). The appropriate antibodies diluted in PBS with 2% fetal calf serum (FCS) and 2 mM EDTA were added to the cells and incubated for 30 min at 4° C., and then washed and detected with the secondary reagents. For intra-cytoplasmic or intra-nuclear labeling or staining, cells were fixed and permeabilized with BD Cytofix/Cytoperm (BD Biosciences) or with eBioscience FoxP3/Transcription Factor Staining Buffer Set (eBioscience/Affimetrix), respectively according to the manufacturer's instructions. Flow cytometry was performed using a BD LSRII or a BD FACSFortessa (BD Biosciences) and the data analyzed using BD FACSDiva 6.0 (BD Biosciences) or FlowJo v.10 (Tree Star Inc.). For isolation of precursor dendritic cells (pre-DC), PBMC were first depleted of T cells, monocytes and B cells with anti-CD3, anti-CD14 and anti-CD20 microbeads (Miltenyi Biotec) using an AutoMACS Pro Separator (Miltenyi Biotec) according to the manufacturer's instructions. […]

CCOCc1nc2c([nH]1)c(N)nc1ccccc12 [CL097]
IFNα secretion by pure pDC cultures [1]: abundant secretion
IL-12p40 secretion by pure pDC cultures [1]: but not IL-12p40
IL-12p40 secretion by pre-DC [2]: readily secreted
IFN-α production by pDC [3]: robust
